Key:
VLDL-C = assay: Effects of combination use of Compound A and EPA on plasma VLDL-C levels in rats; type: in vivo, Wister rats; settings: for VLDL-C Relative value (vs Control): oral once a day, Wister rats, plasma; for Effect on VLDL-C level, in words: Compound A 0.1 mg/kg and/or EPA 200 mg/kg, single or combination administration, Dunnett's test vs control
Protocol: (§1) Wister rats (7-week old, male, Charles River Laboratories Japan Inc.) were used for the experiments. Under ad libitum feeding, the blood samples were obtained from the cervical vein, and the rats were divided into four groups (N=8) based on the plasma TG levels, plasma TC levels and the body weights. From the next day, a solvent (a 0.5% aqueous solution of methyl cellulose: […] In the afternoon of the final administration day, the blood samples were obtained under a condition of 4 hours fasting under anesthesia with pentobarbital, and the plasma VLDL-C levels were measured according to the method by Usui et al. (Usui S et al., Clin. Chem. 46, 63-72, 2000.) by high-speed liquid chromatography. Further, the TG levels were measured by an automatic analyzer, by using a measuring reagent, Qualigent TG (Sekisui Medical Co., Ltd.). The synergistic effect was determined by using Bürgi's formula (when a relative level in a group of combined use is smaller than a value of a product of a relative level of single agent A and a relative level of single agent B, then there is a synergistic effect). Group 2: 0.1 mg/kg of Compound A Group 3: 200 mg/kg of EPA Group 4: 0.1 mg/kg of Compound A and 200 mg/kg of EPA The results are shown as the mean value±standard deviation. Comparison between the control group and the drug-administration group was performed using a Dunnett's multiple comparison test, and a risk rate of less than 5% was determined to have a significant difference.

TG = assay: Effects of combination use of Compound A and EPA on TG levels in rats; type: in vivo, Wister rats; settings: for TG Relative value (vs Control): oral once a day, Wister rats; for Effect on TG level, in words: Compound A 0.1 mg/kg and/or EPA 200 mg/kg, single or combination administration, Dunnett's test vs control
Protocol: as §1

LDL-C = assay: Effects of combination use of Compound A and EPA on plasma LDL-C level in Wister rats; type: in vivo; settings: for LDL-C Relative value (vs. Control): oral once a day, Wister rats, plasma; for Effect on LDL-C level, in words: single administration of Compound A (0.1 mg/kg) or EPA, Dunnett's test vs control
Protocol: as §1, with “divided into six groups (N=8)” for “divided into four groups (N=8)”, “the plasma LDL-C levels were” for “the plasma VLDL-C levels were”, “liquid chromatography. The synergistic” for “liquid chromatography. Further, the TG levels were measured by an automatic analyzer, by using a measuring reagent, Qualigent TG (Sekisui Medical Co., Ltd.). The synergistic”, “of EPA Group 5: 3,000 mg/kg of EPA Group 6: 0.1 mg/kg of Compound A and 3,000 mg/kg of EPA The results” for “of EPA The results”, “group and drug-administration group” for “group and the drug-administration group”, “was performed by using a” for “was performed using a”

SMILES | VLDL-C Relative value (vs Control) (VLDL-C; Compound A 0.1 mg/kg alone) | Effect on VLDL-C level, in words (VLDL-C) | TG Relative value (vs Control) (TG; Compound A 0.1 mg/kg alone) | Effect on TG level, in words (TG) | LDL-C Relative value (vs. Control) (LDL-C; Compound A 0.1 mg/kg alone) | Effect on LDL-C level, in words (LDL-C) | VLDL-C Relative value (vs Control) (VLDL-C; EPA 200 mg/kg alone) | TG Relative value (vs Control) (TG; EPA 200 mg/kg alone) | LDL-C Relative value (vs. Control) (LDL-C; EPA 200 mg/kg alone) | LDL-C Relative value (vs. Control) (LDL-C; EPA 3000 mg/kg alone)
CC[C@@H](Oc1cccc(CN(CCCOc2ccc(OC)cc2)c2nc3ccccc3o2)c1)C(=O)O [Compound A, (R)-2-[3-[[N-(benzoxazol-2-yl)-N-3-(4-methoxyphenoxy)propyl]aminomethyl]phenoxy]butyric acid] | 0.68 | a tendency of decreasing the level of VLDL-C was observed | 0.82 | a tendency of decreasing the level of TG was observed | 1.02 | an obvious effect on LDL-C level was not observed | – | – | – | –
CC/C=C\C/C=C\C/C=C\C/C=C\C/C=C\CCCC(=O)O [EPA, All-cis-5,8,11,14,17-eicosapentaenoic acid] | – | any obvious effect on VLDL-C level was not observed | – | any obvious effect on TG level was not observed | – | mild decreasing action on LDL-C level was observed | 0.92 | 1.10 | 0.84 | 0.85
